Measurements: ChEMBL document CHEMBL1914367, “Formation, recognition and bioactivities of a novel G-quadruplex in the STAT3 gene” (Bioorg Med Chem Lett, 2011)
Activity calls are given as the source filed them. The rule behind the calls is not given here.

How the values were obtained:
[1] = test system: Nucleic Acid; assay: Binding affinity to STAT3 G-quadruplex in 3'-flanking region 5'-GGGCTGGGGATGGGGAGGGGG-3' assessed as intensity ratio of all complex ions to the sum of all G-quadruplex and complex ions at 20 uM by ESI mass spectroscopy relative to control; type: nucleic-acid assay
[2] = test system: Nucleic Acid; assay: Binding affinity to STAT3 G-quadruplex in rat cardiomyocytes assessed as down regulation of STAT3 gene expression at 10 uM after 48 hrs by RT-PCR analysis; type: cell-based
[3] = test system: Nucleic Acid; assay: Binding affinity to STAT3 G-quadruplex in rat cardiomyocytes assessed as down regulation of STAT3 protein expression at 10 uM after 48 hrs by Western blot analysis; type: cell-based
[4] = test system: Nucleic Acid; assay: Binding affinity to STAT3 G-quadruplex in 3'-flanking region 5'-GGGCTGGGGATGGGGAGGGGG-3' assessed as melting temperature at 20 uM by UV-Vis spectrophotometry (reference value: 58 degC); type: nucleic-acid assay
[5] = test system: Nucleic Acid; assay: Down regulation of human STAT3 gene expression in human HEK293 cells cloned with FRQ vector harboring intact G-quadruplex at 2 to 10 uM after 24 hrs by luciferase reporter gene assay; type: cell-based
[6] = test system: Nucleic Acid; assay: Binding affinity to STAT3 G-quadruplex in 3'-flanking region 5'-GGGCTGGGGATGGGGAGGGGG-3' assessed as melting temperature at 40 uM by UV-Vis spectrophotometry (reference value: 58 degC); type: nucleic-acid assay
[7] = test system: Nucleic Acid; assay: Binding affinity to human VEGF G-quadruplex 5'-GGGGCGGGCCGGGGGCGGGG-3' assessed as the intensity ratio of all complex ions to the sum of all G-quadruplex and complex ions at 20 uM by ESI mass spectroscopy relative to control; type: nucleic-acid assay
[8] = test system: Nucleic Acid; assay: Binding affinity to G-telomeric quadruplex 5'-GGGTTAGGGTTAGGGTTAGGG-3' assessed as the intensity ratio of all complex ions to the sum of all G-quadruplex and complex ions at 20 uM by ESI mass spectroscopy relative to control; type: nucleic-acid assay
[9] = test system: HEK293; assay: Down regulation of human STAT3 gene expression in human HEK293 cells cloned with DelQ vector harboring G-quadruplex G-rich sequence deletion at 2 to 10 uM after 24 hrs by luciferase reporter gene assay; type: functional, cell-based
[10] = test system: HEK293; assay: Down regulation of human STAT3 gene expression in human HEK293 cells cloned with MutQ vector harboring G-quadruplex GGG to GTG substitution mutation at 2 to 10 uM after 24 hrs by luciferase reporter gene assay; type: functional, cell-based
[11] = test system: Nucleic Acid; assay: Binding affinity to STAT3 G-quadruplex in 3'-flanking region 5'-GGGCTGGGGATGGGGAGGGGG-3' assessed as melting temperature at 10 uM by UV-Vis spectrophotometry (reference value: 58 degC); type: nucleic-acid assay

COc1cc2c(cc1OC)-c1c(C)c3ccc(OC)c(OC)c3c[n+]1CC2
Ratio [1]: 0.34

COc1ccc2cc1Oc1ccc(cc1)C[C@H]1c3c(cc4c(c3Oc3cc5c(cc3OC)CCN(C)[C@@H]5C2)OCO4)CCN1C
Activity [2]: Active | Ratio [1]: 0.81 | Activity [3]: Active | Tm [4]: 62 °C | inhibition [5]: Active | Tm [6]: 65 °C | Ratio [7]: 0.26 | Ratio [8]: 0.47 | inhibition [9]: inactive | inhibition [10]: inactive | Tm [11]: 59 °C

C[n+]1ccc(-c2c3nc(c(-c4cc[n+](C)cc4)c4ccc([nH]4)c(-c4cc[n+](C)cc4)c4ccc([nH]4)c(-c4cc[n+](C)cc4)c4nc2C=C4)C=C3)cc1
Activity [2]: Active | Ratio [1]: 0.53 | Activity [3]: Active | inhibition [5]: Active | inhibition [9]: inactive | inhibition [10]: inactive
